In patent publication US20110301142A1, “ANTAGONISTS OF LYSOPHOSPHATIDIC ACID RECEPTORS” (priority 2008, published 2011):

What was measured:
[1] = target: T1, human LPA1 (Homo sapiens, UniProt Q92633); experiment: LPA1 calcium flux assay (HLPA1 Ca Flux); assay type: cell-based; conditions: Human LPA1 expressing CHO cells, stimulated with 10 nM LPA
T1 construct: the full-length cDNA for human LPA1 was obtained by PCR of the reverse transcription reaction; expressed in transfected cells
Method in brief: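 Compounds were fitted for IC50 from inhibition of the intracellular calcium rise evoked by 10 nM LPA. Test system: dye-loaded CHO cells stably transfected with human LPA1, serum-free overnight, with 30 min compound pretreatment at room temperature before stimulation.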

[2] = target: T2, human LPA3 (Homo sapiens, UniProt Q9UBY5); experiment: LPA3 calcium flux assay; assay type: cell-based; conditions: Human LPA3 expressing CHO cells, stimulated with 10 nM LPA; read-out: HLPA3 Ca Flux IC50
T2 construct: The full-length cDNA fragment for human LPA3 was obtained by PCR from the vector; expressed in transfected cells; cDNA from the Missouri S&T cDNA Resource Center
T2 sequence (Q9UBY5 1-353): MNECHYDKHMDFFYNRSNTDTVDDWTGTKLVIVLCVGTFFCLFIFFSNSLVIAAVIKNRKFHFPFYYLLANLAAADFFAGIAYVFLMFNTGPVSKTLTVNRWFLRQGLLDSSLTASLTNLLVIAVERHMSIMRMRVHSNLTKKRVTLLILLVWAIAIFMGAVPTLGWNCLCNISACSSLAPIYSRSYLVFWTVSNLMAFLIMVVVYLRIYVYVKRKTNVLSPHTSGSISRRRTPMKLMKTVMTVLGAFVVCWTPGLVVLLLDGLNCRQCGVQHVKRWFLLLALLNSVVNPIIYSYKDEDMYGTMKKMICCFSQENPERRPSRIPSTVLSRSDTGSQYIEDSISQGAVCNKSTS
Method in brief: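 Stably transfected CHO cells, serum-starved overnight, loaded with Calcium 4 dye 1 h at 37 °C in HBSS/20 mM Hepes with 0.3% fatty-acid-free HSA. Compounds preincubated 30 min at room temperature, then cells stimulated with 10 nM LPA; intracellular Ca2+ read by fluorescence; IC50 from titration curves.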

T1 sequence (Q92633 whole entry): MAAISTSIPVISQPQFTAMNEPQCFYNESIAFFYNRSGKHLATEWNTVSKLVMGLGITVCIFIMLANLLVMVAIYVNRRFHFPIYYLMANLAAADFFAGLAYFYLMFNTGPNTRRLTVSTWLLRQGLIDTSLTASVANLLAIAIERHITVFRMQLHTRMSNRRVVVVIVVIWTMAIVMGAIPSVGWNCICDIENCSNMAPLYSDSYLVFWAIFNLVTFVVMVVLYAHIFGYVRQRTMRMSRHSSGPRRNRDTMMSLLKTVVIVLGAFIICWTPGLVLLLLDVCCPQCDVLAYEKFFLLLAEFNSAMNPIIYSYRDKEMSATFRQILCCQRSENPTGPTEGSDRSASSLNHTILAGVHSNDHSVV

IC50 [1] [nM]	IC50 [2] [nM]	SMILES
< 300	300 to 1000	Cc1noc(-c2ccc(-c3ccc(C(C)(C)C(=O)O)cc3)cc2)c1NC(=O)O[C@H](C)c1ccccc1Cl [Compound 1-89, 2-(4′-{4-[(R)-1-(2-Chloro-phenyl)-ethoxycarbonylamino]-3-methyl-isoxazol-5-yl}-biphenyl-4-yl)-2-methyl-propionic acid]
< 300	1000 to 50000	Cc1noc(-c2ccc(-c3ccc(C(C)(C)C(=O)O)cc3)cc2)c1NC(=O)O[C@H](C)c1ccccc1F [Compound 1-90, 2-(4′-{4-[(R)-1-(2-Fluoro-phenyl)-ethoxycarbonylamino]-3-methyl-isoxazol-5-yl}-biphenyl-4-yl)-2-methyl-propionic acid]
< 300	1000 to 50000	Cc1noc(-c2ccc(-c3ccc(C(C)C(=O)O)cc3)cc2)c1NC(=O)O[C@H](C)c1ccccc1F (stereo partly drawn) [Compound 1-91, 2-(4′-{4-[(R)-1-(2-Fluoro-phenyl)-ethoxycarbonylamino]-3-methyl-isoxazol-5-yl}-biphenyl-4-yl)-propionic acid]
< 300	300 to 1000	Cc1noc(-c2ccc(-c3ccc(C(C)C(=O)O)cc3)cc2)c1NC(=O)O[C@H](C)c1ccccc1Cl (stereo partly drawn) [Compound 1-92, 2-(4′-{4-[(R)-1-(2-Chloro-phenyl)-ethoxycarbonylamino]-3-methyl-isoxazol-5-yl}-biphenyl-4-yl)-propionic acid]
< 300	1000 to 50000	Cc1noc(-c2ccc(-c3nc(C(=O)O)cs3)cc2)c1NC(=O)OC(C)c1ccccc1Cl (centres unmarked) [Compound 1-93, 2-(4-{4-[1-(2-Chloro-phenyl)-ethoxycarbonylamino]-3-methyl-isoxazol-5-yl}-phenyl)-thiazole-4-carboxylic acid]
< 300	1000 to 50000	Cc1noc(-c2ccc(-c3ncc(C(=O)O)s3)cc2)c1NC(=O)OC(C)c1ccccc1Cl (centres unmarked) [Compound 1-94, 2-(4-{4-[1-(2-Chloro-phenyl)-ethoxycarbonylamino]-3-methyl-isoxazol-5-yl}-phenyl)-thiazole-5-carboxylic acid]
< 300	1000 to 50000	COC(=O)Cc1cccc(Oc2ccc(-c3onc(C)c3NC(=O)O[C@H](C)c3ccccc3F)cc2)c1 [Compound 1-95, [3-(4-{4-[1-(2-Fluoro-phenyl)-ethoxycarbonylamino]-3-methyl-isoxazol-5-yl}-phenoxy)-phenyl]acetic acid methyl ester]
< 300	1000 to 50000	Cc1noc(-c2ccc(Oc3cccc(CC(=O)O)c3)cc2)c1NC(=O)O[C@H](C)c1ccccc1F [Compound 1-96, [3-(4-{4-[1-(2-Fluoro-phenyl)-ethoxycarbonylamino]-3-methyl-isoxazol-5-yl}-phenoxy)-phenyl]-acetic acid]
< 300	1000 to 50000	Cc1noc(-c2ccc(CS(=O)(=O)c3ccc(CC(=O)O)cc3)cc2)c1NC(=O)OC(C)c1ccccc1Cl (centres unmarked) [Compound 1-97, [4-(4-{4-[1-(2-Chloro-phenyl)-ethoxycarbonylamino]-3-methyl-isoxazol-5-yl}-phenylmethanesulfonyl)-phenyl]-acetic acid]
< 300	> 50000	Cc1noc(-c2ccc(CS(=O)(=O)c3cccc(CC(=O)O)c3)cc2)c1NC(=O)OC(C)c1ccccc1Cl (centres unmarked) [Compound 1-98, [3-(4-{4-[1-(2-Chloro-phenyl)-ethoxycarbonylamino]-3-methyl-isoxazol-5-yl}-phenylmethanesulfonyl)-phenyl]acetic acid]
< 300	1000 to 50000	Cc1noc(-c2ccc(CS(=O)(=O)c3ccccc3CC(=O)O)cc2)c1NC(=O)OC(C)c1ccccc1Cl (centres unmarked) [Compound 1-99, [2-(4-{4-[1-(2-Chloro-phenyl)-ethoxycarbonylamino]-3-methyl-isoxazol-5-yl}-phenylmethanesulfonyl)-phenyl]-acetic acid]
< 300	1000 to 50000	Cc1noc(-c2ccc(COc3ccc(CC(=O)O)cc3)cc2)c1NC(=O)OC(C)c1ccccc1Cl (centres unmarked) [Compound 1-100, [4-(4-{4-[1-(2-Chloro-phenyl)-ethoxycarbonylamino]-3-methyl-isoxazol-5-yl}-benzyloxy)-phenyl]-acetic acid]
< 300	1000 to 50000	COC(=O)Cc1ccc(OCc2ccc(-c3onc(C)c3NC(=O)O[C@H](C)c3ccccc3Cl)cc2)cc1 [Compound 1-102, [4-(4-{4-[(R)-1-(2-Chloro-phenyl)-ethoxycarbonylamino]-3-methyl-isoxazol-5-yl}-benzyloxy)-phenyl]-acetic acid methyl ester]
< 300	1000 to 50000	Cc1noc(-c2ccc(COc3ccc(CC(=O)O)cc3)cc2)c1NC(=O)O[C@H](C)c1ccccc1Cl [Compound 1-103, [4-(4-{4-[(R)-1-(2-Chloro-phenyl)-ethoxycarbonylamino]-3-methyl-isoxazol-5-yl}-benzyloxy)-phenyl]-acetic acid]
< 300	1000 to 50000	Cc1noc(-c2ccc(Sc3ccc(CC(=O)O)cc3)cc2)c1NC(=O)O[C@H](C)c1ccccc1F [Compound 1-109, [4-(4-{4-[(R)-1-(2-Fluoro-phenyl)-ethoxycarbonylamino]-3-methyl-isoxazol-5-yl}-phenylsulfanyl)-phenyl]-acetic acid]
< 300	1000 to 50000	Cc1noc(-c2ccc(-c3ccc(CC(=O)O)cc3)cc2)c1NC(=O)O[C@@H](C)c1ccccc1F [Compound 1-111, (4′-{4-[(S)-1-(2-Fluoro-phenyl)-ethoxycarbonylamino]-3-methyl-isoxazol-5-yl}-biphenyl-4-yl)-acetic acid]
300 to 1000	1000 to 50000	Cc1noc(-c2ccc(-c3ccc(CC(=O)O)cc3)cc2)c1NC(=O)O[C@@H](C)c1ccccc1Cl [Compound 1-112, (4′-{4-[(S)-1-(2-Chloro-phenyl)-ethoxycarbonylamino]-3-methyl-isoxazol-5-yl}-biphenyl-4-yl)-acetic acid]
< 300	1000 to 50000	Cc1noc(-c2ccc(COc3ccccc3CC(=O)O)cc2)c1NC(=O)O[C@H](C)c1ccccc1Cl [Compound 1-114, [2-(4-{4-[(R)-1-(2-Chloro-phenyl)-ethoxycarbonylamino]-3-methyl-isoxazol-5-yl}-benzyloxy)-phenyl]-acetic acid]
< 300	1000 to 50000	Cc1noc(-c2ccc(-c3ccc(CC(=O)O)cc3)cc2)c1NC(=O)OC(C)c1cccc(F)c1F (centres unmarked) [Compound 1-116, (4′-{4-[1-(2,3-Difluoro-phenyl)-ethoxycarbonylamino]-3-methyl-isoxazol-5-yl}-biphenyl-4-yl)-acetic acid]
< 300	1000 to 50000	Cc1noc(-c2ccc(-c3ccc(CC(=O)O)cc3)cc2)c1NC(=O)OC(C)c1ccc(F)cc1F (centres unmarked) [Compound 1-117, (4′-{4-[1-(2,4-Difluoro-phenyl)-ethoxycarbonylamino]-3-methyl-isoxazol-5-yl}-biphenyl-4-yl)-acetic acid]
< 300	1000 to 50000	Cc1noc(-c2ccc(-c3ccc(CC(=O)O)cc3)cc2)c1NC(=O)OC(C)c1cc(F)ccc1F (centres unmarked) [Compound 1-119, (4′-{4-[1-(2,5-Difluoro-phenyl)-ethoxycarbonylamino]-3-methyl-isoxazol-5-yl}-biphenyl-4-yl)-acetic acid]
< 300	> 50000	Cc1noc(-c2ccc(-c3ccc(CC(=O)O)cc3)cc2)c1NC(=O)OC(C)c1c(F)cccc1F (centres unmarked) [Compound 1-120, (4′-{4-[1-(2,6-Difluoro-phenyl)-ethoxycarbonylamino]-3-methyl-isoxazol-5-yl}-biphenyl-4-yl)-acetic acid]
< 300	> 50000	Cc1noc(-c2ccc(-c3cccc(CC(=O)O)c3)cc2)c1NC(=O)O[C@H](C)c1ccccc1 [Compound 1-121]
< 300	1000 to 50000	Cc1noc(-c2ccc(-c3ccc(C(=O)O)cc3)cc2)c1NC(=O)O[C@H](C)c1ccccc1 [Compound 1-122]
< 300	1000 to 50000	Cc1ccccc1[C@@H](C)OC(=O)Nc1c(C)noc1-c1ccc(-c2ccc(CC(=O)O)cc2)cc1 [Compound 1-124]
< 300	1000 to 50000	Cc1noc(-c2ccc(-c3ccc(CC(=O)O)cn3)cn2)c1NC(=O)O[C@H](C)c1ccccc1F [Compound 1-126, (6′-{4-[(R)-1-(2-Fluoro-phenyl)-ethoxycarbonylamino]-3-methyl-isoxazol-5-yl}-[2,3,1]bipyridinyl-5-yl)-acetic acid]
< 300	1000 to 50000	Cc1noc(-c2ccc(-c3ccc(CC(=O)O)cc3)cc2Cl)c1NC(=O)O[C@H](C)c1ccccc1Cl [Compound 1-129, (3′-Chloro-4′-{4-[(R)-1-(2-chloro-phenyl)-ethoxycarbonylamino]-3-methyl-isoxazol-5-yl}-biphenyl-4-yl)-acetic acid]
< 300	300 to 1000	CCC(C(=O)O)c1ccc(-c2ccc(-c3onc(C)c3NC(=O)O[C@H](C)c3ccccc3Cl)cc2)cc1 (stereo partly drawn) [Compound 1-130, 2-(4′-{4-[(R)-1-(2-Chloro-phenyl)-ethoxycarbonylamino]-3-methyl-isoxazol-5-yl}-biphenyl-4-yl)-butyric acid]
